Experimental data from PubChem BioAssay (NCI).
Several values for one entry are separate records, joined by “and”; a condition that tells them apart may be missing. Equal entries are not always repeated.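 How tested: cells in 96-well plates exposed to compound for 48 hours at five concentrations. GI50 is the concentration that inhibits growth by half. TGI marks complete inhibition of growth.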

Tests used:
Test in all cases: NCI-60 cell line screen, 48 h
MOLT-4 leukemia = test system: MOLT-4 leukemia
SN12C renal = test system: SN12C renal
TK-10 renal = test system: TK-10 renal
SK-MEL-2 melanoma = test system: SK-MEL-2 melanoma
U251 CNS = test system: U251 CNS
NCI-H460 lung = test system: NCI-H460 lung
HOP-62 NSCLC = test system: HOP-62 NSCLC
T-47D breast = test system: T-47D breast
HS 578T breast = test system: HS 578T breast
HCC-2998 colon = test system: HCC-2998 colon

## N#CCc1nnc(N)o1
MOLT-4 leukemia
  TGI: > 100 µM
SN12C renal
  TGI: > 100 µM
TK-10 renal
  TGI: > 100 µM
SK-MEL-2 melanoma
  TGI: > 100 µM
U251 CNS
  TGI: > 100 µM

## C=CCOC(=O)Nc1cccn([C@H](CC(C)C)C(=O)NCCC(C)C)c1=O
MOLT-4 leukemia
  GI50: 61.9 µM
  TGI: > 100 µM
NCI-H460 lung
  GI50: > 100 µM
  TGI: > 100 µM
HOP-62 NSCLC
  GI50: > 100 µM
  TGI: > 100 µM
T-47D breast
  GI50: 68.2 µM
  TGI: > 100 µM
SN12C renal
  GI50: > 100 µM
  TGI: > 100 µM
TK-10 renal
  GI50: > 100 µM
  TGI: > 100 µM
SK-MEL-2 melanoma
  GI50: > 100 µM
  TGI: > 100 µM
HS 578T breast
  GI50: 87.8 µM
  TGI: > 100 µM
U251 CNS
  GI50: 92.3 µM
  TGI: > 100 µM

## CC[PH+](CC)CC.CC[PH+](CC)CC.[Au]
HCC-2998 colon
  GI50: 20.7 µM
  TGI: 35.2 µM
MOLT-4 leukemia
  GI50: 5.33 µM
  TGI: 24.1 µM
NCI-H460 lung
  GI50: 23.5 µM
  TGI: 60.9 µM
HOP-62 NSCLC
  GI50: 22 µM
  TGI: 36.6 µM
SN12C renal
  GI50: 16.1 µM
  TGI: 31.4 µM
TK-10 renal
  GI50: 19.9 µM
  TGI: 35.7 µM
SK-MEL-2 melanoma
  GI50: 2.73 µM
  TGI: 15.8 µM
U251 CNS
  GI50: 8.21 µM
  TGI: 24.3 µM

## Cc1[nH]nc2ncc(C(=O)N3CCC[C@H]3c3ccc(Cl)cc3)cc12
HCC-2998 colon
  GI50: > 100 µM
  TGI: > 100 µM
MOLT-4 leukemia
  GI50: 72.1 µM
  TGI: > 100 µM
NCI-H460 lung
  GI50: > 100 µM
  TGI: > 100 µM
HOP-62 NSCLC
  GI50: > 100 µM
  TGI: > 100 µM
SN12C renal
  GI50: > 100 µM
  TGI: > 100 µM
TK-10 renal
  GI50: 94.2 µM
  TGI: > 100 µM
SK-MEL-2 melanoma
  GI50: > 100 µM
  TGI: > 100 µM
HS 578T breast
  GI50: > 100 µM
  TGI: > 100 µM
U251 CNS
  GI50: > 100 µM
  TGI: > 100 µM

## C=C1C(=O)C2=CC1CCC(=O)C1(C)CCC(OC(C)=O)C(C)(C)C1CC2O (stereo unspecified)
HCC-2998 colon
  TGI: 4 µM
NCI-H460 lung
  TGI: 4.64 µM
HOP-62 NSCLC
  TGI: 22.8 µM
T-47D breast
  TGI: 21.8 µM
SN12C renal
  TGI: 12.5 µM
TK-10 renal
  TGI: 26.5 µM
SK-MEL-2 melanoma
  TGI: 25.6 µM
HS 578T breast
  TGI: 20.4 µM
U251 CNS
  TGI: > 47.1 µM

## COc1ccc(OC)c(/C=C/c2ccnc3ccccc23)c1
HCC-2998 colon
  TGI: 12.9 µM
MOLT-4 leukemia
  TGI: 16.2 µM
NCI-H460 lung
  TGI: 12.3 µM
HOP-62 NSCLC
  TGI: 18 µM
T-47D breast
  TGI: 29.5 µM
SN12C renal
  TGI: 17.6 µM
TK-10 renal
  TGI: 16 µM
HS 578T breast
  TGI: 5.72 µM
U251 CNS
  TGI: 5.66 µM

## O=C(O)CN(c1ccc(F)cc1)S(=O)(=O)c1ccccc1
MOLT-4 leukemia
  TGI: > 100 µM
NCI-H460 lung
  TGI: > 100 µM
SN12C renal
  TGI: > 100 µM
TK-10 renal
  TGI: > 100 µM
SK-MEL-2 melanoma
  TGI: > 100 µM
U251 CNS
  TGI: > 100 µM

## O=C1C(=O)N(c2ccc(Cl)cc2)C(=O)C(=Nc2cccc3c(=O)[nH][nH]c(=O)c23)C1c1nc2ccccc2o1 (stereo unspecified)
HCC-2998 colon
  TGI: > 100 µM
MOLT-4 leukemia
  TGI: > 100 µM
NCI-H460 lung
  TGI: > 100 µM
HOP-62 NSCLC
  TGI: > 100 µM
SN12C renal
  TGI: > 100 µM
TK-10 renal
  TGI: > 100 µM
SK-MEL-2 melanoma
  TGI: > 100 µM
U251 CNS
  TGI: > 100 µM

## COC(=O)[C@@H](C)C[C@H](Cc1ccccc1)NC(=O)c1csc([C@@H](C[C@H](C(C)C)N(C)C(=O)[C@@H](NC(=O)[C@H]2CCCN2C)C2CC2)OC(C)=O)n1
HCC-2998 colon
  GI50: 0.00431 µM and 0.0025 µM
  TGI: > 25 µM
MOLT-4 leukemia
  GI50: 0.00316 µM and 0.0025 µM
  TGI: > 25 µM
NCI-H460 lung
  GI50: 0.00238 µM and 0.0025 µM
  TGI: > 25 µM
HOP-62 NSCLC
  GI50: 0.00255 µM and 0.0025 µM
  TGI: > 25 µM
SN12C renal
  GI50: 0.000981 µM and 0.0025 µM
  TGI: > 25 µM
TK-10 renal
  TGI: > 25 µM
SK-MEL-2 melanoma
  GI50: 0.000505 µM
HS 578T breast
  GI50: 0.00186 µM
U251 CNS
  GI50: 0.00287 µM and 0.0025 µM
  TGI: > 25 µM

## [Cu+2].[NH-]C(CC(=O)O)C(=O)O.[NH-]C(CC(=O)O)C(=O)O (stereo unspecified)
MOLT-4 leukemia
  GI50: > 100 µM
  TGI: > 100 µM
NCI-H460 lung
  GI50: > 100 µM
  TGI: > 100 µM
HOP-62 NSCLC
  GI50: > 100 µM
  TGI: > 100 µM
T-47D breast
  GI50: > 100 µM
  TGI: > 100 µM
SN12C renal
  GI50: > 100 µM
  TGI: > 100 µM
TK-10 renal
  GI50: > 100 µM
  TGI: > 100 µM
SK-MEL-2 melanoma
  GI50: > 100 µM
  TGI: > 100 µM
HS 578T breast
  GI50: > 100 µM
  TGI: > 100 µM
U251 CNS
  GI50: > 100 µM
  TGI: > 100 µM

## COc1ccc2nc3cccc([N+](=O)[O-])c3c(NC(C)CN(C)C)c2c1 (stereo unspecified)
MOLT-4 leukemia
  GI50: 1.23 µM
  TGI: 4.13 µM
NCI-H460 lung
  GI50: 0.51 µM
  TGI: 3.73 µM
HOP-62 NSCLC
  GI50: 1.18 µM
  TGI: 2.96 µM
T-47D breast
  GI50: 5.52 µM
  TGI: 36 µM
SN12C renal
  GI50: 2.67 µM
  TGI: 9.6 µM
TK-10 renal
  GI50: 2.2 µM
  TGI: 9.59 µM
U251 CNS
  GI50: 0.371 µM
  TGI: 2.17 µM

## N#CC1=C(N)Oc2c(sc3c(Br)cccc23)C1c1ccc(Cl)cc1 (stereo unspecified)
HCC-2998 colon
  GI50: 1.57 µM
  TGI: 6.29 µM
MOLT-4 leukemia
  GI50: 0.625 µM
  TGI: 6.49 µM
HOP-62 NSCLC
  GI50: 0.89 µM
  TGI: 6.42 µM
T-47D breast
  GI50: 0.464 µM
  TGI: 11.6 µM
SN12C renal
  GI50: 2.88 µM
  TGI: 17.6 µM
TK-10 renal
  GI50: 3.47 µM
  TGI: 12.8 µM
SK-MEL-2 melanoma
  GI50: 0.672 µM
  TGI: 12.3 µM
HS 578T breast
  GI50: 0.855 µM
  TGI: 18.1 µM
U251 CNS
  GI50: 0.563 µM
  TGI: 2.36 µM

## COc1ccc(-c2[nH]nc(N)c2-c2cc(OC)c(OC)c(OC)c2)cc1
HCC-2998 colon
  GI50: 0.0396 µM
  TGI: 1.4 µM
MOLT-4 leukemia
  GI50: 0.0487 µM
NCI-H460 lung
  GI50: 0.0363 µM
  TGI: > 33.7 µM
HOP-62 NSCLC
  GI50: 0.0442 µM
  TGI: > 100 µM
SN12C renal
  GI50: 0.0716 µM
  TGI: > 57.4 µM
SK-MEL-2 melanoma
  GI50: 0.0379 µM
  TGI: > 100 µM
HS 578T breast
  GI50: 0.0352 µM
  TGI: > 59 µM
U251 CNS
  GI50: 0.0424 µM
  TGI: > 100 µM

## O=C(O)c1cn(C2CC2)c2cc(N3CCN(Cc4c(O)ccc5ccccc45)CC3)c(F)cc2c1=O
HCC-2998 colon
  GI50: > 100 µM
  TGI: > 100 µM
HOP-62 NSCLC
  GI50: 3.99 µM
  TGI: 43.1 µM
T-47D breast
  GI50: > 100 µM
  TGI: > 100 µM
SN12C renal
  GI50: 5.38 µM
  TGI: > 100 µM
TK-10 renal
  GI50: 2.66 µM
  TGI: 8.38 µM
SK-MEL-2 melanoma
  GI50: 15.1 µM
  TGI: > 100 µM
HS 578T breast
  GI50: 2.74 µM
  TGI: 17.2 µM
U251 CNS
  GI50: 19 µM
  TGI: > 100 µM

## NCCSC(c1ccccc1)(c1ccccc1)c1ccccc1
MOLT-4 leukemia
  GI50: 2.3 µM
  TGI: 7.1 µM
NCI-H460 lung
  GI50: 1.31 µM
  TGI: 4.01 µM
HOP-62 NSCLC
  GI50: 2.43 µM
  TGI: 14.2 µM
T-47D breast
  GI50: 2.62 µM
  TGI: 8.42 µM
SN12C renal
  GI50: 0.739 µM
  TGI: 11.7 µM
SK-MEL-2 melanoma
  GI50: 1.18 µM
  TGI: 2.72 µM
HS 578T breast
  GI50: 1.09 µM
  TGI: 5.29 µM
U251 CNS
  GI50: 0.373 µM
  TGI: 1.72 µM

## COc1cc(O)c2c(c1)C(=O)C1=C(C2=O)C(O)C[C@@](C)(O)C1 (stereo partly specified)
HCC-2998 colon
  TGI: 2.91 µM
MOLT-4 leukemia
  TGI: 7.63 µM
NCI-H460 lung
  TGI: 4.96 µM
HOP-62 NSCLC
  TGI: 21.2 µM
SN12C renal
  TGI: 2.65 µM
TK-10 renal
  TGI: 6.14 µM
SK-MEL-2 melanoma
  TGI: 5.05 µM
U251 CNS
  TGI: 6.34 µM

## O=C(CSSCC(=O)Nc1ccc(Br)cc1)Nc1ccc(Br)cc1
HCC-2998 colon
  TGI: 50.6 µM
MOLT-4 leukemia
  TGI: 67 µM
NCI-H460 lung
  TGI: 37.7 µM
HOP-62 NSCLC
  TGI: 25.9 µM
SN12C renal
  TGI: 30.2 µM
TK-10 renal
  TGI: 30.5 µM
U251 CNS
  TGI: 27.6 µM
